Experimental data published in PMC13089524, “Development of SYK NanoBRET cellular target engagement assays for gain–of–function variants” (Frontiers in chemical biology, 2024).

What was measured:
SYK = target: T1, SYK (Homo sapiens, UniProt P43405); assay: Eurofins DiscoverX SYK enzymatic radiometric assay; format: biochemical; conditions: for IC50: Km value for ATP, 9-pt dose-response
T1 construct: purchased Eurofins DiscoverX (contract assay service)
Description: Eurofins kinase enzymatic radiometric assays were executed at the Km value for ATP in dose–response (9-pt curve) format for SYK, included in Table 1 as enzymatic IC50 values.

SYK(KD)-NL or NL-SYK(KD) = target: T2, SYK(KD)-NL or NL-SYK(KD) (Homo sapiens, UniProt P43405); assay: NanoBRET tracer optimization with SYK kinase domain only constructs; format: cell-based; conditions: with or without digitonin, N- or C-terminal NL
T2 construct: N- and C-terminally-tagged NL SYK kinase domain constructs lacking the tandem SH2 domains were prepared; expressed in transfected cells; host or cells: HEK293
Protocol: HEK293 cells were transfected with constructs of SYK (WT, KD, and GoF variants) tagged with NL on the N- or C-terminus as previously described ([Wells et al., 2021]). Constructs for NanoBRET measurements of SYK(WT) (NL-SYK(WT) and SYK(WT)-NL) and SYK GoF variants (SYK(S550Y)-NL, SYK(S550F)-NL, SYK(P342T)-NL, SYK(M450I)-NL, and SYK(A353T)-NL) were kindly provided by Promega. NL orientations used in the respective assays are indicated. Cells were plated in 96-well tissue culture-treated plates (Corning, #3917) at a cell density of 2 × 10^5 cells/mL, with a total volume of 100 μL per well in DMEM +10% FBS. After 16 h, the media was aspirated from the plate and replaced with room temperature Opti-MEM without phenol red (Gibco, #11058021), 100 μL in no tracer wells; 95 μL in tracer only wells; 90 μL in no tracer wells and with digitonin treated plates, 90 μL in no tracer wells; 85 μL in tracer only wells; 80 μL in no tracer wells. Plates were incubated for 25 min at room temperature if digitonin was added or for 2 h at 37°C in 5% CO2 for the intact cell NanoBRET assay. NanoBRET plates were read after the addition of 50 μL of a stock solution (3X) containing NanoBRET NanoGlo substrate (Promega, #N2161), extracellular NanoLuc inhibitor (Promega, #N2161) when reading assay plates performed in intact live cells, and Opti-MEM without phenol red (Gibco, #11058021). For intact live cells in a 96-well plate, the 3X stock solution was prepared with 30 μL of NanoBRET NanoGlo substrate, 10 μL of extracellular NanoLuc inhibitor, and 4,960 μL of Opti-MEM without phenol red. For digitonin permeabilized live cells in a 96-well plate, the 3X stock solution was prepared with 30 μL of NanoBRET NanoGlo substrate and 4,970 μL of Opti-MEM without phenol red. Raw milliBRET units (mBU) were read on a GloMax Discover system (Promega) with a donor emission wavelength of 450 nm and an acceptor emission wavelength of 600 nm. mBU were calculated by dividing the acceptor emission values (600 nm) by the donor emission values (450 nm). For NanoBRET studies with SYK, background corrected mBU were calculated by subtracting the no tracer wells from the tracer-containing wells and multiplying by 1,000. Where the results are reported as a BRET fold change, this is the BRET ratio for the vehicle-treated sample divided by BRET for the inhibitor-treated sample.
HEK293 cells were transfected with constructs of SYK(WT) or SYK(KD) tagged with NL on the C- or N-terminus and SYK GoF variants tagged with NL on the C-terminus. Tracer 8 (20X) was prepared from a 400 μM stock solution in DMSO with tracer dilution buffer (Promega, #N291B) and 20% DMSO, with a final assay plate concentration of 1% DMSO. […]

SYK(WT)-NL = target: T3, SYK(WT)-NL (Homo sapiens, UniProt P43405); assay: NanoBRET assay in digitonin permeabilized HEK293 cells, SYK(WT)-NL; format: cell-based; conditions: C-terminal NL fusion, tracer 0.5, 1, 2 μM
T3 construct: SYK tracers enable BRET with full-length SYK(WT) after digitonin permeabilization; host or cells: HEK293
Protocol: We performed NanoBRET tracer optimization to determine if the SYK tracers could effectively generate a BRET signal. […] To enable the NanoBRET assay using tracer 8 with cells permeabilized by digitonin, a tracer dose–response study was performed for each SYK(GoF) variant and SYK(WT) (Figure 3A), followed by tracer titration experiments (Figure 3B; Supplementary Figure S3). […] Initially, we determined the EC50 of tracer 8 for each SYK(GoF) variant and SYK(WT). […] Plates were incubated for 25 min at room temperature if digitonin was added or for 2 h at 37°C in 5% CO2 for the intact cell NanoBRET assay. […] For intact live cells in a 96-well plate, the 3X stock solution was prepared with 30 μL of NanoBRET NanoGlo substrate, 10 μL of extracellular NanoLuc inhibitor, and 4,960 μL of Opti-MEM without phenol red. For digitonin permeabilized live cells in a 96-well plate, the 3X stock solution was prepared with 30 μL of NanoBRET NanoGlo substrate and 4,970 μL of Opti-MEM without phenol red. Raw milliBRET units (mBU) were read on a GloMax Discover system (Promega) with a donor emission wavelength of 450 nm and an acceptor emission wavelength of 600 nm. mBU were calculated by dividing the acceptor emission values (600 nm) by the donor emission values (450 nm). For NanoBRET studies with SYK, background corrected mBU were calculated by subtracting the no tracer wells from the tracer-containing wells and multiplying by 1,000.
HEK293 cells were transfected with constructs of SYK(WT) or SYK(KD) tagged with NL on the C- or N-terminus and SYK GoF variants tagged with NL on the C-terminus. Tracer 8 (20X) was prepared from a 400 μM stock solution in DMSO with tracer dilution buffer (Promega, #N291B) and 20% DMSO, with a final assay plate concentration of 1% DMSO. 5 μL of 8 (20X) was added to each well, with exception of the no tracer control wells, with final plate concentrations of 0.5, 1, and 2 μM. 10 μL of digitonin (Fisher, 10X, 500 μg/mL) was added to specific wells to permeabilize the cells. The 10X digitonin stock was prepared by diluting a 40X DMSO solution of digitonin with room temperature Opti-MEM without phenol red, for a final assay plate concentration of 1% DMSO. SYK inhibitor stock solutions of MRL-SYKi (10X) were prepared from 10 mM DMSO stock solutions with room temperature Opti-MEM without phenol red, for final assay plate concentrations of 10 μM. Plates were incubated for 25 min at room temperature if digitonin was added or for 2 h at 37°C in 5% CO2 for the intact cell NanoBRET assay. Two technical replicates were plotted in a bar chart with the standard deviation represented as error bars on Graphpad Prism.

[1] = test system: FGR, MLK1, YES, FLT3, PAK5, LYN, SRC, and LCK; conditions: ref Coffey et al., 2012, Spurgeon et al., 2013, cited from earlier work

Row | IC50 (SYK) [nM] | BRET signal (SYK(KD)-NL or NL-SYK(KD)) | BRET signal (background subtracted) (SYK(WT)-NL) | decrease in potency compared to the parent inhibitor MRL-SYKi (SYK; ratio of enzymatic IC50) [fold] | SMILES | inhibition of eight kinases ([1]; at 300 nM) | IC50 ([1]; dose-response, read-out: enzymatic IC50 of the closest off-target) [nM] | closest off-target less potent compared to SYK [1] [fold]
1 | 2400 | did not generate a BRET signal | 4 mBU |  | O=C(CCc1ccc2n1[B-](F)(F)[N+]1=C(c3ccc[nH]3)C=CC1=C2)NCCOCCOCCOCCC(=O)N1CCN(c2ccc(Nc3nc(-c4ccc5cn[nH]c5c4)cn4ccnc34)cc2)CC1 [Tracer 2] |  |  | 
2 | 97 |  |  |  | Cn1ncc2ccc(-c3cn4ccnc4c(Nc4ccc(N5CCNCC5)cc4)n3)cc21 [Tracer 3] |  |  | 
3 | > 10000 | did not generate a BRET signal | did not generate a BRET signal |  | Cn1ncc2ccc(-c3cn4ccnc4c(Nc4ccc(N5CCN(C(=O)CCc6ccc7n6[B-](F)(F)[N+]6=C(c8ccc[nH]8)C=CC6=C7)CC5)cc4)n3)cc21 [Tracer 4] |  |  | 
4 | 1100 | did not generate a BRET signal | > 10 mBU |  | CC1(C)Oc2ccc(Nc3nc(Nc4cccc(OCC(=O)NCCOCCOCCOCCNC(=O)CCc5ccc6n5[B-](F)(F)[N+]5=C(c7ccc[nH]7)C=CC5=C6)c4)ncc3F)nc2NC1=O [Tracer 5] |  |  | 
5 | 1400 | did not generate a BRET signal | > 10 mBU |  | CC1(C)Oc2ccc(Nc3nc(Nc4cccc(OCC(=O)NCCNC(=O)CCc5ccc6n5[B-](F)(F)[N+]5=C(c7ccc[nH]7)C=CC5=C6)c4)ncc3F)nc2NC1=O [Tracer 6] |  |  | 
6 | 470 |  | > 10 mBU | 15.6 | Cc1cc(Nc2nccc(C)n2)cc(-c2cnc([C@@]3(O)CC[C@H](C(=O)NCCOCCOCCOCCNC(=O)CCc4ccc5n4[B-](F)(F)[N+]4=C(c6ccc[nH]6)C=CC4=C5)C(C)(C)C3)s2)c1 [Tracer 7] |  |  | 
7 |  |  |  |  | NC(=O)c1cnc(N[C@@H]2CCCC[C@@H]2N)nc1Nc1cccc(-n2nccn2)c1 [Tracer P505-15] | greater than 80% | 81 | 81
